Assay results as given in PMC2727864 (Molecular cancer therapeutics, 2008).
Where “and” joins values, the source holds several entries; their conditions need not be identical. Equal values may be shown once.

Columns and labels:
phospho-(pan)-PKC = assay: Phospho-; type: cell-based, human; settings: HT-29, 2 hr, EGF stimulated, Western blot
phospho-Ser241 PDK1 = assay: Phospho-Ser241 PDK1 Western analysis in HT-29 cells; type: cell-based, human; settings: HT-29, 2 hr, EGF stimulated, Western blot
tumor phospho-Ser473 AKT = assay: Pharmacodynamic study, tumor phospho-Ser473 AKT in HT-29 xenografts; type: in vivo, mouse
[1] = Pharmacokinetic study, plasma concentration in mice; type: in vivo, mouse
LogP = type: physicochemical
Solubility = type: physicochemical
[2] = Metabolic stability, incubation with HT-29 cells in DMEM at 37°C; type: in vitro ADME; settings: human
Toxicity studies in mice = type: in vivo, mouse
[3] = system: HT-29 colon cancer xenografts; assay: Anti-tumor activity, HT-29 colon cancer xenografts in scid mice; type: in vivo, mouse; settings: orally daily for 5 days at 250 mg/kg
phospho-Ser473 AKT [4] = assay: Inhibition of phospho-Ser473 AKT by Western analysis in HT-29 cells; type: cell-based, human
phospho-Ser473 AKT [5] = assay: Inhibition of phospho-Ser473 AKT by Western analysis in NIH3T3 cells; type: cell-based; settings: Mus musculus, NIH3T3, read-out: AKT inhibition (IC50) NIH3T3
[6] = 24 hr after a single dose 250 mg/kg
[7] = five daily doses at 250 mg/kg ip

CC1=NN(C(=O)c2ccc(Cl)cc2)C(=O)C1N=Nc1ccc(S(=O)(=O)Nc2ncccn2)cc1 (centres unmarked) [Compound 1, 4-[1-(4-Chlorobenzoyl)-3-methyl-5-oxo-4,5-dihydro-1H-pyrazol-4-ylazo]-N-pyrimidin-2-yl-benzenesulfonamide]
phosphorylation of PKC (phospho-(pan)-PKC): decreased
phosphorylation of PDK (phospho-Ser241 PDK1): decreased
inhibition of tumor phospho-Ser473 AKT at 4 hr (tumor phospho-Ser473 AKT; 4 hr after a single dose 250 mg/kg): small inhibition
inhibition of tumor phospho-Ser473 AKT at 24 hr (tumor phospho-Ser473 AKT; [6]): no inhibition
total AKT in tumor compared to actin loading control (tumor phospho-Ser473 AKT; [6]): significant decrease
peak plasma concentration, ip ([1]; single dose 250 mg/kg ip): 1.4 µM
peak plasma concentration, oral ([1]; single dose 250 mg/kg oral): 0.6 µM
logP (LogP): 2.1
solubility (Solubility): very insoluble and 17.9 µM
half-life [2]: 1.03 h
body weight, blood lymphocyte, red blood cell and platelet count, AST, ALT (Toxicity studies in mice; [7]): no change
neutropenia (Toxicity studies in mice; [7]): moderate neutropenia
toxicity, single dose (Toxicity studies in mice; single dose up to 250 mg/kg, ip, mice): no toxicity
anti-tumor activity [3]: no activity
AKT phosphorylation, concentration response (phospho-Ser473 AKT [4]; HT-29, 2 hr, EGF stimulated, Western blot): decreased in a concentration-dependent manner
IC50 (phospho-Ser473 AKT [4]; Homo sapiens, HT-29, read-out: AKT inhibition (IC50) HT-29): 13 µM
IC50 (phospho-Ser473 AKT [5]): 4 µM
